Test systems include A498 renal; CCRF-CEM leukemia; HCC-2998 colon; LOX IMVI melanoma; MALME-3M melanoma; NCI-H226 lung; NCI-H23 lung; NCI-H460 lung; SF-268 CNS; SF-539 CNS.
Holding throughout (test): NCI-60 cell line screen, 48 h

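Five concentrations, 48 hours, 96-well plates. GI50: concentration for 50% inhibition of growth. TGI denotes the concentration required for complete inhibition of growth.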

Drawing on PubChem BioAssay (NCI), this text covers TGI and GI50 for 10 molecules.

As for `CN(C)C(=O)C1CCC(=C2C(=O)OC(C)(C)OC2=O)N1C` (stereo not given), the TGI with A498 renal, with CCRF-CEM leukemia, in the assay on HCC-2998 colon, in the assay on LOX IMVI melanoma, with MALME-3M melanoma and in the assay on NCI-H226 lung was more than 100 µM each time. Besides, the TGI in the assay on NCI-H23 lung, in the assay with NCI-H460 lung, in the assay with SF-268 CNS and in the assay on SF-539 CNS was more than 100 µM each time.
For `O=c1oc2ccc(Cl)cc2c(=O)n1-c1ccc(I)cc1F`, the GI50 in the assay on A498 renal is 0.055 µM; in the assay with CCRF-CEM leukemia it was 0.702 µM; in the assay on HCC-2998 colon, 2.66 µM; in the assay on LOX IMVI melanoma, 0.248 µM; in the assay with MALME-3M melanoma, 0.158 µM; with NCI-H226 lung it was 0.566 µM. Also, the GI50 is 0.169 µM in the assay with NCI-H23 lung, 0.199 µM in the assay with NCI-H460 lung, 0.26 µM in the assay with SF-268 CNS and 0.231 µM in the assay with SF-539 CNS. Further, the TGI was 0.182 µM in the assay on A498 renal; 5.14 µM in the assay with CCRF-CEM leukemia; 8.51 µM in the assay with HCC-2998 colon; 1.69 µM in the assay with LOX IMVI melanoma; 0.813 µM in the assay on MALME-3M melanoma; 2.92 µM with NCI-H226 lung. In addition, the TGI with NCI-H23 lung is 1.5 µM; in the assay with NCI-H460 lung it was more than 23.8 µM; in the assay with SF-268 CNS, 4.11 µM; in the assay on SF-539 CNS, 2.69 µM.
Regarding `C/C(=N\NC(N)=O)C(CN(C)C)C(c1ccccc1)c1c(O)c2ccccc2oc1=O` (stereo not given), the TGI with A498 renal, in the assay on CCRF-CEM leukemia, in the assay with HCC-2998 colon, with LOX IMVI melanoma, in the assay with MALME-3M melanoma and with NCI-H226 lung was more than 100 µM each time. Besides, the TGI in the assay on NCI-H23 lung, with NCI-H460 lung, with SF-268 CNS and in the assay with SF-539 CNS was more than 100 µM in each case.
With `N/N=C(\Cc1ccccc1)NN=C(N)N`, the TGI with A498 renal, with CCRF-CEM leukemia, with HCC-2998 colon, in the assay on LOX IMVI melanoma, with MALME-3M melanoma and in the assay on NCI-H226 lung was more than 100 µM in each case. Moreover, the TGI in the assay on NCI-H23 lung, with NCI-H460 lung, in the assay on SF-268 CNS and in the assay with SF-539 CNS was more than 100 µM each time.
For the molecule `Clc1ccc2nc(Oc3ccccc3)cnc2c1`, the GI50 in the assay with A498 renal is 8.84 µM; in the assay with CCRF-CEM leukemia it was more than 100 µM; in the assay with HCC-2998 colon, more than 100 µM; in the assay on LOX IMVI melanoma, more than 100 µM; with MALME-3M melanoma it was more than 100 µM; in the assay on NCI-H226 lung it was more than 100 µM. Moreover, the GI50 in the assay on NCI-H23 lung, in the assay with NCI-H460 lung, in the assay on SF-268 CNS and with SF-539 CNS was more than 100 µM each time. Besides, the TGI in the assay on A498 renal, in the assay on CCRF-CEM leukemia, in the assay with HCC-2998 colon, in the assay on LOX IMVI melanoma, with MALME-3M melanoma and with NCI-H226 lung was more than 100 µM each time. The TGI in the assay on NCI-H23 lung, with NCI-H460 lung, in the assay with SF-268 CNS and with SF-539 CNS was more than 100 µM in each case.
`Cc1cccc(C(C)(C)C)c1NC(=O)C(=O)C(c1cnc2ccccc2n1)[N+](=O)[O-]` (stereo not given): the TGI in the assay with A498 renal, in the assay on CCRF-CEM leukemia, in the assay with HCC-2998 colon, in the assay on LOX IMVI melanoma, in the assay with MALME-3M melanoma and in the assay with NCI-H226 lung was more than 100 µM each time. Further, the TGI in the assay on NCI-H23 lung, in the assay with NCI-H460 lung, in the assay with SF-268 CNS and with SF-539 CNS was more than 100 µM in each case.
With `NCc1ccc(-n2c(-c3nonc3N)nc3cnccc32)cc1`, the GI50 is 1.38 µM in the assay on A498 renal; 6.26 µM with CCRF-CEM leukemia; 23.8 µM in the assay with HCC-2998 colon; 17.1 µM in the assay on LOX IMVI melanoma; more than 25 µM in the assay with MALME-3M melanoma; 0.912 µM with NCI-H226 lung. For the same molecule, the GI50 is more than 25 µM with NCI-H23 lung, 13.7 µM with NCI-H460 lung, 5.26 µM in the assay with SF-268 CNS and 2.57 µM in the assay on SF-539 CNS. Further, the TGI in the assay with A498 renal is more than 22.1 µM; in the assay on CCRF-CEM leukemia, more than 25 µM; in the assay with HCC-2998 colon, more than 25 µM; in the assay on LOX IMVI melanoma it was more than 25 µM; in the assay on MALME-3M melanoma, more than 25 µM; with NCI-H226 lung it was more than 25 µM. Further, the TGI with NCI-H23 lung is more than 25 µM; in the assay with NCI-H460 lung, more than 25 µM; with SF-268 CNS it was more than 25 µM; with SF-539 CNS it was more than 23.6 µM.
In the case of `Oc1cc(Cl)ccc1Oc1ccc(Cl)cc1Cl`, the GI50 is 2.8 µM with A498 renal; 3.36 µM with CCRF-CEM leukemia; 2.57 µM with HCC-2998 colon; 1.87 µM in the assay on LOX IMVI melanoma; 2.37 µM in the assay on MALME-3M melanoma; 2.32 µM with NCI-H226 lung. Also, the GI50 is 2.07 µM with NCI-H23 lung, 2.85 µM in the assay on NCI-H460 lung, 4.53 µM with SF-268 CNS and 2.58 µM with SF-539 CNS. Moreover, the TGI came out at 14.1 µM in the assay with A498 renal; 10.6 µM in the assay with CCRF-CEM leukemia; 6.61 µM in the assay on HCC-2998 colon; 3.86 µM in the assay on LOX IMVI melanoma; 6.83 µM in the assay with MALME-3M melanoma; 6.82 µM in the assay on NCI-H226 lung. Also, the TGI turned out to be 5.5 µM in the assay with NCI-H23 lung, 8.3 µM in the assay with NCI-H460 lung, 16.4 µM in the assay with SF-268 CNS and 7.74 µM in the assay with SF-539 CNS.
On to `Cc1cc(N2CCCC2)nc(N(CCCNc2ccnc3cc(Cl)ccc23)Cc2ccc3c(c2)OCO3)n1`, for which the GI50 is 2.44 µM in the assay on A498 renal; 0.398 µM in the assay on CCRF-CEM leukemia; 1.79 µM in the assay with HCC-2998 colon; 1.03 µM in the assay on LOX IMVI melanoma; 1.65 µM with MALME-3M melanoma; 5.2 µM in the assay with NCI-H226 lung. Moreover, the GI50 with NCI-H23 lung is 2.36 µM; in the assay with NCI-H460 lung it was 1.29 µM; with SF-268 CNS, 2.89 µM; with SF-539 CNS, 1.23 µM. In addition, the TGI in the assay on A498 renal turned out to be 7.5 µM; in the assay with CCRF-CEM leukemia, 4.03 µM; with HCC-2998 colon it was 3.79 µM; in the assay with LOX IMVI melanoma, 2.35 µM; with MALME-3M melanoma it was 3.2 µM; with NCI-H226 lung it was 33.8 µM. Besides, the TGI in the assay on NCI-H23 lung came to 15.5 µM; in the assay on NCI-H460 lung, 4.34 µM; with SF-268 CNS, 16.6 µM; in the assay with SF-539 CNS, 2.6 µM.
In the case of `O=C(Cc1ccccc1)N/N=C(\C1=Nc2ccc([N+](=O)[O-])cc2NC1O)C(O)c1ccc([N+](=O)[O-])cc1` (stereo not given), the TGI with A498 renal, in the assay on CCRF-CEM leukemia, with HCC-2998 colon, with LOX IMVI melanoma, with MALME-3M melanoma and in the assay with NCI-H226 lung was more than 100 µM in each case. Moreover, the TGI in the assay with NCI-H23 lung, in the assay with NCI-H460 lung, in the assay on SF-268 CNS and in the assay with SF-539 CNS was more than 100 µM each time.
